Measurements from PubChem BioAssay (NCI).
Several values for one entry are separate records, joined by “and”; a condition that tells them apart may be missing. Equal values may be shown once.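 Method: 48-hour compound exposure of cells in 96-well plates, five concentrations, linear interpolation of endpoints. Here, GI50 denotes the concentration required for 50% inhibition of growth. The concentration for full growth arrest is given as TGI.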

What was measured:
Test in all cases: DTP human tumour cell line panel, 48 h
NCI-H226 lung = system: NCI-H226 lung
U251 CNS = system: U251 CNS
SK-MEL-5 melanoma = system: SK-MEL-5 melanoma
KM12 colon = system: KM12 colon
HL-60(TB) leukemia = system: HL-60(TB) leukemia
MDA-MB-231 breast = system: MDA-MB-231 breast
SK-MEL-2 melanoma = system: SK-MEL-2 melanoma
EKVX NSCLC = system: EKVX NSCLC
HCT-15 colon = system: HCT-15 colon
MALME-3M melanoma = system: MALME-3M melanoma

| SMILES | TGI (NCI-H226 lung) | TGI (U251 CNS) | TGI (SK-MEL-5 melanoma) | TGI (KM12 colon) | TGI (HL-60(TB) leukemia) | TGI (MDA-MB-231 breast) | TGI (SK-MEL-2 melanoma) | TGI (EKVX NSCLC) | TGI (HCT-15 colon) | TGI (MALME-3M melanoma) | GI50 (U251 CNS) | GI50 (SK-MEL-5 melanoma) | GI50 (KM12 colon) | GI50 (MDA-MB-231 breast) | GI50 (SK-MEL-2 melanoma) | GI50 (EKVX NSCLC) | GI50 (HCT-15 colon) | GI50 (MALME-3M melanoma) | GI50 (NCI-H226 lung) | GI50 (HL-60(TB) leukemia) |
| --- | --- | --- | --- | --- | --- | --- | --- | --- | --- | --- | --- | --- | --- | --- | --- | --- | --- | --- | --- | --- |
| O=C(OC(C(=O)O)C(OC(=O)c1ccccc1)C(=O)O)c1ccccc1 (stereo not drawn) (tested in a mixture with another compound) | > 100 µM | > 100 µM | 43.2 µM | > 100 µM | > 37.8 µM | 95.2 µM | > 100 µM and 28.7 µM | > 100 µM | > 100 µM | > 100 µM | – | – | – | – | – | – | – | – | – | – |
| C=C(C)C(=O)NC(N)=NC#N | 330 µM | 260 µM | 310 µM | 286 µM | 42.6 µM and 50.3 µM | 301 µM | 261 µM | > 90 µM and 392 µM | 243 µM | 63.2 µM and 214 µM | 131 µM | 171 µM | 147 µM | 161 µM | 134 µM | 165 µM | 103 µM | 80.8 µM | – | – |
| C[C@H](c1ccc(Cl)cc1N)N1C(=O)c2cc(I)ccc2N(CCCN2CCN(C)CC2)C(=O)[C@@H]1c1ccc(Cl)cc1 | 2.86 µM | 2.85 µM | 2.92 µM | 3.24 µM | 3.69 µM | 2.97 µM | 3.37 µM | 3.21 µM | 3.2 µM | 1.27 µM | 1.52 µM | 1.57 µM | 1.78 µM | 1.53 µM | 1.81 µM | 1.55 µM | 1.68 µM | 0.242 µM | 1.33 µM | 1.89 µM |
| N=c1nc(N)c2cc3c(N)nc(=N)c3cc12 | 44.7 µM | 43.5 µM | > 100 µM | > 100 µM | 6.78 µM | 8.09 µM | > 46.5 µM | 75.3 µM | > 100 µM | 18 µM | – | – | – | – | – | – | – | – | – | – |
| Nc1ccccc1NC(=O)c1ccc(CSc2nc(N3CCOCC3)c3cccn3n2)cc1 | 3.95 µM | 5.61 µM | 1.61 µM | > 100 µM | 0.961 µM | 11.7 µM | 1.88 µM | > 100 µM | > 100 µM | > 100 µM | 0.565 µM | 0.415 µM | 1.14 µM | 0.806 µM | 0.314 µM | 1.08 µM | 0.588 µM | 0.834 µM | 1.26 µM | 0.273 µM |
| CN1CCN(C(=O)c2ccc(NC(=O)Nc3ccc(N(C)c4ccnc(Nc5ccc(CS(C)(=O)=O)cc5)n4)cc3)cc2)CC1 | > 25 µM | > 25 µM | > 25 µM | > 25 µM | > 25 µM | > 25 µM | > 25 µM | > 25 µM | > 25 µM | > 25 µM | 6.26 µM | 12.4 µM | 7.33 µM | > 23.8 µM | > 12.7 µM | > 25 µM | > 25 µM | > 15 µM | 6.79 µM | > 19.4 µM |
| O=C1C=C(Nc2ccccc2)c2ncccc2C1=O | 3.61 µM | 1.2 µM | 0.318 µM | 2.11 µM | 3.84 µM | 3.4 µM | 3.67 µM | 2.81 µM | 1.28 µM | 2.37 µM | 0.348 µM | 0.177 µM | 0.669 µM | 0.485 µM | 1.91 µM | 1.37 µM | 0.321 µM | 1.06 µM | 1.71 µM | 0.842 µM |
| CCc1ccc(C2=C/C(=C/c3ccc(Cl)cc3)C(=O)N2CCc2ccc(S(N)(=O)=O)cc2)cc1 | 6.34 µM | 4.2 µM | 3.07 µM | 10.1 µM | 5.35 µM | 5.92 µM | 7.76 µM | 10 µM | 12.9 µM | 5.19 µM | 2 µM | 1.63 µM | 3.02 µM | 2.36 µM | 2.27 µM | 2.62 µM | 2.98 µM | 1.96 µM | 2.37 µM | 2.12 µM |
| COc1cc2c(c(OC)c1OC)-c1ccc([O-])c(=O)cc1[C@@H](NC(C)=O)CC2.COc1cc2c(c(OC)c1OC)-c1ccc([O-])c(=O)cc1[C@@H](NC(C)=O)CC2.[Cu+2] | > 100 µM | > 100 µM | 12 µM | 5.52 µM | 4.82 µM | > 100 µM | > 100 µM | > 100 µM | > 100 µM | > 100 µM | 3.48 µM | 2.94 µM | 1.87 µM | 3.84 µM | 3.59 µM | 4.64 µM | 3.73 µM | 15 µM | 5.13 µM | 2.05 µM |
| CNC(=O)c1ccc(Nc2ncc(C(F)(F)F)c(NCc3nccnc3N(C)S(C)(=O)=O)n2)cc1 | 6.67 µM and 12 µM and 18.2 µM | > 10 µM and 12 µM and 13.6 µM | 4.59 µM and 4.55 µM and 5.49 µM | > 10 µM and 6.33 µM and 11.3 µM | 8.1 µM and 6.09 µM and 7.7 µM | > 10 µM and 11.9 µM | 3.71 µM and 4.28 µM and 4.63 µM | > 10 µM and 10.8 µM | > 10 µM and 11.3 µM and 12.6 µM | > 10 µM and 13.3 µM and 12.7 µM | 3.29 µM and 3.18 µM and 2.88 µM | 1.85 µM and 2.1 µM and 2.09 µM | 0.383 µM and 0.309 µM and 0.307 µM | 2.55 µM and 3.12 µM and 2.6 µM | 0.783 µM and 1.32 µM and 1.6 µM | 2.49 µM and 2.64 µM | 2.92 µM and 2.65 µM and 2.57 µM | 4.1 µM and 2.98 µM and 3.71 µM | 1.26 µM and 2.71 µM and 3.28 µM | 2.02 µM and 2.19 µM and 2.49 µM |
| Cc1cc(NC(=O)c2ccc(NS(=O)(=O)CCO)cc2N2CCC3(CC2)CC3)nc(N2CCC(F)(F)CC2)n1 | 29.3 µM | 22.7 µM | 19.7 µM | 16.9 µM | > 57.1 µM | 17.6 µM | 31.1 µM | 28.8 µM | 20.5 µM | 27.8 µM | 1.5 µM | 2.7 µM | 1.7 µM | 0.188 µM | 15.8 µM | 14.2 µM | 4.71 µM | 13.9 µM | 2.09 µM | 19.4 µM |
| O=S(=O)(NCCNc1cc(-c2cn(-c3ccccc3)nc2-c2cccc(O)c2)ccn1)c1ccc(C(F)(F)F)cc1 | 30.9 µM | 7.28 µM | 3.36 µM | 7.98 µM | 4.77 µM | 4.72 µM | 7.22 µM | 11.8 µM | 11 µM | 4.57 µM | 2.65 µM | 1.78 µM | 2.62 µM | 2.12 µM | 2.36 µM | 2.25 µM | 2.34 µM | 1.68 µM | 5.36 µM | 2.17 µM |
| CC[C@H](C)c1occ2c(O)c(C(=O)O)c(=O)cc-2c1C | > 100 µM | 74.6 µM | 38.1 µM | 35.7 µM | 41.7 µM | 50.6 µM | 34 µM | > 100 µM | 32.1 µM | 37.7 µM | – | – | – | – | – | – | – | – | – | – |
